Data reported in patent publication US9464113B2, “Anti-heparan sulfate peptides that block herpes simplex virus infection in vivo” (The Board of Trustees of the University of Illinois, priority 2010, dated 2016).
No end group written: not given here.

Assays:
[1] = system: HSV-1 glycoproteins (gB, gD, gH-gL) induced membrane fusion; test: HSV-1 glycoprotein induced cell-to-cell fusion assay, human CF target cells; assay type: cell-based, herpes simplex virus type-1
Text: CHO-K1 “effector” cells (grown in F-12 Ham, Invitrogen) were co-transfected with plasmids expressing four HSV-1(KOS) glycoproteins: pPEP98 (gB), pPEP99 (gD), pPEP100 (gH), and pPEP101 (gL), along with the plasmid pT7EMCLuc that expresses firefly luciferase gene under transcriptional control of the T7 promoter. Pertel et al., Virology 279:313-324 (2001). Wild-type CHO-K1 cells, which express cell-surface HS but lack functional gD receptors, were transiently transfected with HSV-1 entry receptors. Wild-type CHO-K1 cultured cells expressing HSV-1 entry receptors or naturally susceptible cells (human CF) considered as “target cells” were co-transfected with pCAGT7 that expresses T7 RNA polymerase using chicken actin promoter and CMV enhancer. Tiwari et al., FEBS Letters 581:4468-4472 (2007). Untreated effector cells expressing pT7EMCLuc and HSV-1 essential glycoproteins, and target cells expressing gD receptors transfected with T7 RNA polymerase, were used as positive controls. G2 or control peptide-treated target cells were then co-cultivated (1:1 ratio) for 18 h with effector cells for fusion. Activation of a reporter luciferase gene—as a measure of cell fusion—was examined using reporter lysis assay (Promega) at 24 hr post mixing.
Since G2 was isolated against 3-OS HS, which can mediate viral penetration by promoting membrane fusion (Tiwari et al., J. Gen. Virol. 85:805-809 (2004)), the ability of G2 to block HSV-1 glycoprotein-mediated membrane fusion was tested. Pertel et al., Virology 279:313-324 (2001). The same membrane fusion is used during polykaryocytes formation and cell-to-cell spread. Tiwari et al., FEBS Letters 581:4468-4472 (2007) and Tiwari et al., Biochemical and Biophysical Research Communications 390:382-387 (2009). […]
Control effector cells (T7 polymerase and gD, gH-gL only) (−) were also pre-incubated with G2 for the same duration. […] Membrane fusion as a surrogate for viral spread was detected by monitoring luciferase activity (FIGS. 7A and 7C). Relative luciferase units (RLUs) were determined using a Sirius luminometer (Berthold detection systems). […]

HSV-1(K26GFP) = HSV-1(K26GFP) binding to human CF (microscopy, fluorescence reader, flow cytometry); assay type: cell-based, herpes simplex virus type-1; conditions: for virus binding by flow cytometry: 60 min pre-treatment, 4° C. (FIG. 6C)
Description: Flow cytometry was performed to detect the effect of G2 peptide on GFP-HSV-1 binding to human CF. Monolayers of approximately 5×10^6 CF were pre-treated with G2 peptide for 60 min followed by incubation with GFP-expressing HSV-1 (K26GFP) at 4° C. A control peptide treated and untreated cells were similarly incubated with HSV-1 GFP virions. Uninfected CF were used as background negative control. GFP expression from the viral capsid on cell surface was examined by a flowcytometer (MoFlo).
Cultured CF were pre-incubated with 0.5 mM G2 peptide or control-peptide (cp) and then infected with a GFP-tagged HSV-1(K26GFP) virus. Cells were fixed at 60 min post-infection and stained for F-actin and the nucleus (DAPI). GFP-expressing HSV-1(K26GFP) binding to CF in presence and absence of G2 peptides was examined by fluorescence microscopy (FIG. 6A). CF were grown in collagen coated chamber slides and incubated at room temperature for 60 min with G2 (+) or control Cp (G2 (−)) peptide. This was followed by the incubation of the cells in cold with GFP-expressing HSV-1(K26GFP) for 30 min and washing of unbound virioins with PBS. Cells were fixed, stained with phalloidin for F-actin and DAPI for nuclei and examined by a fluorescence microscope (Leica, SP2). The presence of the virus was shown by detecting GFP.
To examine this effect on a population of 10^5 cells, GFP intensity as an indicator of virus binding, was measured after incubation with the virus in cold and rigorous washing of the cells afterwards (FIG. 6B). Relative virus binding to CF was estimated by fluorescence measurements. Cultured CF were pre-incubated with G2 and control peptide (Cp) for 60-min before ice-cold incubation with GFP-expressing HSV-1 virus for 30 min. Cells were washed 3 times and viruses remaining on cell surfaces were assayed for GFP fluorescent intensity using a fluorescence reader (Tecan).
GFP-expressing HSV-1(K26GFP) intensity as a surrogate for virus binding was quantified in presence G2 or control peptide (abbreviated as C) by flow cytometry (FIG. 6C). The cell/virus incubation was performed as described above. G2 peptides block HSV-1 replication into cultured human corneal fibroblasts (CF) (FIG. 6D). Cultured CF were pre-incubated with G2 or mock-treated (Cp) before infection with HSV-1(K26GFP) virus for 6 h. Viral replications in CF were quantified 0-36 h post-infection by measuring GFP fluorescent intensity using a fluorescence reader (Tecan). The data shown are the means of triplicate measures and are representative of three independent experiments. Asterisks indicate significant difference from other treatments (P<0.01, t test), error bars represent standard deviation (SD).
Primary cultures of human CF pretreated with G2 peptide or control peptide (C) were analyzed for HSV-1(K26GFP) binding. […]

| Sequence | blocking of membrane fusion ([1]; statement only, target cells not stated, no data shown) | blocking of membrane fusion (luciferase activity) ([1]; human CF (FIG. 7A)) | syncytia (polykaryocyte) formation, Giemsa staining ([1]; human CF (FIG. 7B)) | virus attachment (fluorescence microscopy) (HSV-1(K26GFP); 0.5 mM, 60 min, virus in cold 30 min (FIG. 6A)) | virus binding by flow cytometry (HSV-1(K26GFP)) | relative virus binding (GFP fluorescent intensity) (HSV-1(K26GFP); fluorescence reader (FIG. 6B)) |
| --- | --- | --- | --- | --- | --- | --- |
| LRSRTKIIRIRH [G1, LRSRTKIIRIRH] | does not appear to block membrane fusion |  |  |  |  |  |
| MPRRRRIRRRQK [G2, MPRRRRIRRRQK] |  | very effective in blocking membrane fusion | loss of syncytia formation | resisted virus attachment | virus failed to bind | binding was significantly higher in Cp-treated compared to G2 peptide treated cells |
| RVCGSIGKEVLG [Cp, reference compound] |  |  |  |  | low level inhibitory activity |  |
